# Results reported in patent publication US8614301B2, “Methods of treating cancer using anti CD24 antibodies” (priority 2007, dated 2013).
# Residues, ends and D or L forms follow the SMILES beside them. *: point of attachment. Cbz = O=C(OCc1ccccc1)*
# T1: CD24 in HT29 cells (Homo sapiens, UniProt P25063)
# T1 construct: endogenous in cells; host or cells: HT29 human colorectal cancer cells (ATCC)
# T1 sequence (P25063 27-59 limits assumed): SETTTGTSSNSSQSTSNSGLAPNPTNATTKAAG
# T2: human CD24 polypeptide (human) (UniProt P25063)
# T2 sequence (looked up): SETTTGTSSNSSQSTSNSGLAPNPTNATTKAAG
# B1: SWA11 anti-CD24 monoclonal antibody (antibody, human IgG1, kappa, V domains shown)
# V domain 1: SDVHLQESGPDLVKPSQSLSLTCTVTGYSITSGYTWHWIRQFPGNTVEWMGYIQYTGSTRYNPALRGRLSISRDTSKNQFFLQLISVTTADTGTYFCARGTTASFDYWGQGTTLTVAS
# V domain 2: DIVMSQSPSSLNVSVGEKVTMRCRSSQSLLYSSDQKNYLTWYQQKPGQSPKLLISWASTRASGVPDRFTGSGSGTDFTLTISSVKAEDLGVYYCQQYFIYPLTFGVGTKLGLKR
# Legend:
# HT29 cells = assay: Combined anti-CD24 mAb and chemotherapy, methylene-blue viability assay; format: cell-based, human; settings: simultaneous SWA11, 72 hours
# Experimental: Experiments were performed in duplicates or repeated twice. The Y axes stand for cell viability quantified via methylene-blue assay.
# The killing effect of the anti-CD24 antibodies and the chemotherapies was assessed, in-vitro, using a methylene-blue assay: 2.5×10^3 cells/well were plated onto 96-well in 0.2 ml complete medium. On the morrow the media were refreshed with the addition of the indicated reagents, held in incubation for 72 hours. The cells were washed with PBS and then fixed with a 0.2 mL 4% formaldehyde solution for 2 hours at room temperature. The cells were then washed with PBS, incubated with 0.15 mL ribonuclease A (3 μg/mL) for 30 minutes at room temperature, equilibrated with 0.2 mL sodium borate (0.1M, pH 8.5), and stained with 0.2 mL methylene blue (0.5%) for 10 minutes at room temperature. Finally, the cells were thoroughly washed with tap water and cell-bound dye was eluted with 0.2 mL HCl (0.1M). Color intensity was read in an enzyme-linked immunosorbent assay plate reader at 595 nm. SWA11 served as the anti-CD24 antibody.
# CD24 in HT29 cells = molecular target: T1, CD24 in HT29 cells; assay: Western blot of CD24 degradation in mAb-treated cells; format: cell-based; settings: up to 6 hours
# Experimental: FIGS. 5A and 5B are photos showing immunodetection on Western blot of CD24 degradation in anti-CD24 mAb treated cancer cells. HT29 (FIG. 5A) and Colo357 (FIG. 5B) cells were exposed to monoclonal anti-CD24 antibody SWA11 for the indicated periods of time, cells harvested and protein extracted. 20 μg of cell proteins from each sample were separated by SDS-PAGE, blotted onto membrane and reacted with anti-CD24 (SWA11 mAb, CD24) or polyclonal anti-actin (1-19, Santa Cruz Biotechnology, Santa Cruz Calif.). Visualization was effected by anti-mouse and anti-goat (respectively) second antibodies. Note the degradation of CD24 apparent already at 2 hours treatment in both cell lines, with no effect on actin levels;
# FIG. 6 is a photo showing the lysosomal mediation of CD24 degradation in HT29 cancer cells treated with anti-CD24 mAb. […]
# Exponentially growing cells were harvested and protein concentrations were determined using the Bio-Rad protein assay kit (Bio-Rad, Hercules, Calif.). […]
# In order to assess whether CD24 proteolysis is involved in the inhibition of CD24-expressing cancer cell growth by anti-CD24 antibodies, protein levels of CD24 and housekeeping gene product actin in mAb-treated and control cells were analyzed by SDS-PAGE and Western blotting with specific antibodies.
# [1] = molecular target: T2, human CD24 polypeptide (human); assay: cell-based or functional assay
# [2] = molecular target: T2, human CD24 polypeptide (human); assay: cell-based or functional assay; remark: listed apart in the source
Molecule,cytotoxic effect of chemotherapeutic agent when combined with SWA11 (HT29 cells),other results
O=c1[nH]cc(F)c(=O)[nH]1 [5-florouracil],enhanced the cytotoxic effect,–
COc1cccc2c1C(=O)c1c(O)c3c(c(O)c1C2=O)C[C@@](O)(C(=O)CO)C[C@@H]3O[C@H]1C[C@H](N)[C@H](O)[C@H](C)O1 [Doxorubicin],enhanced the cytotoxic effect,–
CC(C)C[C@@H](C=O)NC(=O)[C@H](CC(C)C)NC(=O)[C@H](CC(C)C)NC(=O)OCc1ccccc1 [MG132] (Cbz-Leu-Leu-Leu-aldehyde),–,"effect on anti-CD24 mAb induced CD24 degradation (CD24 in HT29 cells; 0.1 mM, proteasomal inhibitor, added prior to mAb): had no effect"
O=C1[O][Pt]2([NH][C@@H]3CCCC[C@H]3[NH]2)[O]C1=O [Oxaloplatin],enhanced the cytotoxic effect,–
CC(=O)O[C@H]1C(=O)[C@@]2(C)[C@H]([C@H](OC(=O)c3ccccc3)[C@]3(O)C[C@H](OC(=O)[C@H](O)[C@@H](NC(=O)c4ccccc4)c4ccccc4)C(C)=C1C3(C)C)[C@]1(OC(C)=O)CO[C@@H]1C[C@@H]2O [Paclitaxel],enhanced the cytotoxic effect,–
CCN(CC)CCCC(C)Nc1ccnc2cc(Cl)ccc12 (centres unmarked) [chloroquine],–,"effect on anti-CD24 mAb induced decrease in CD24 protein level (CD24 in HT29 cells; 0.5 mM, lysosomal inhibitor, added 2 hours before mAb): prevented the decrease in CD24 protein level"
SWA11-ZZ-PE38 immunoconjugate,–,cytotoxity (LD50) [1]: 32 ng/mL
B1,–,"growth inhibition (cell viability, methylene blue) [2]: < 90%"
